# Experimental data: patent US20130266557A1, “METHODS FOR TREATMENT OF A SARCOMA USING AN EPIMETABOLIC SHIFTER (COENZYME Q10)” (priority 2009, published 2013)
# Columns and labels:
# Test in all cases: Induction of early apoptosis by CoQ10
# Type in all cases: cell-based
# BT-20 = tested on: BT-20
# Description: (§1) The effects of Coenzyme Q10 treatment on a variety of oncogenic and normal cell lines were examined and compared. The sensitivity of cells to Coenzyme Q10 was assessed by monitoring induction of apoptosis. CoQ10 treatment of cells was carried out as described in detail below in the Materials and Methods. Induction of apoptosis was assessed in the treated cells by monitoring indicators of early apoptosis (e.g., Bcl-2 expression, caspase activation and by using annexin V assays) as described below. From these studies, the minimal CoQ10 dosage, e.g., concentration of CoQ10 and time of treatment, required to induce apoptosis in the panel of cell lines was determined.
# (§2) Cells were cultured in T-75 flasks with relevant medium supplemented with 10% Fetal Bovine Serum (FBS), 1% PSA (penicillin, streptomycin, amphotericin B) (Invitrogen and Cellgro) in a 37° C. incubator with 5% CO2 levels until 70-80% confluence was reached. To harvest cells for treatment, flasks were primed with 1 mL Trypsin, aspirated, trypsinized with an additional 3 mL, and incubated at 37° C. for 3-5 minutes. Cells were then neutralized with an equal volume of media and the subsequent solution was centrifuged at […] for 8 minutes. The supernatant was aspirated and the cells were resuspended with 8.5 ml of media. A mixture of 500 ul of the resuspension and 9.5 ml of […] was read twice by a coulter counter and the appropriate number of cells to be seeded into each dish was determined. Control and concentration ranging from 0-200 μM groups were examined in triplicate. From a 500 μM CoQ-10 stock solution, serial dilutions were performed to achieve desired experimental concentration in appropriate dishes. Dishes were incubated in a 37° C. incubator with 5% CO2 levels for 0-72 hours depending on cell type and experimental protocol.
# (§3) The volume of sample to load per well was determined using the raw mean concentration of protein obtained from the BCA protein assay. Approximately 30-60 μg of protein were loaded for each treatment time point. Proteins were run in triplicate on 12% Tris-HCl ready gels (Bio-Rad) or hand cast gels in 1× running buffer at 85 and 100 volts. Proteins were then transferred onto nitrocellulose paper for an hour at 100 volts, and blocked for another hour in a 5% milk solution. Membranes were placed in primary antibody (1 uL Ab:1000 uL TBST) (Cell Signaling) overnight at […] The following day, membranes were washed three times for ten minutes each with Tris-Buffered Saline Tween-20 (TBST), and secondary antibody (anti-rabbit; 1 uL Ab: 1000 uL TBST) was applied for an hour at […] Membranes were washed again three times for ten minutes with TBST and chemoluminescence using Pico or Femto substrate was completed (Pierce). Membranes were then developed at time intervals that produced the best visual results. After developing, membranes were kept in TBST at […] until Actin levels could be measured.
# (§4) Cells were washed twice in PBS10× and resuspended in Binding Buffer (0.1 M HEPES, pH 7.4; 1.4 M NaCl; 25 mM CaCl2). Samples of 100 μl were added to a culture tube with 5 μl of annexin-PE dye or […]. The cells were mixed and incubated without light at room temperature for 15 minutes. After which, 400 μl of 1×Binding Buffer was added to each sample and they were subjected to analysis by flow cytometry.
# PaCa2 = tested on: PaCa2
# Description: as §1, §2, §3, §4
# HepG2 = tested on: HepG2
# Description: as §1, §2, §3, §4
# PC3 = tested on: PC3
# Description: as §1, §2, §3, §4
# SkBr-3 = tested on: SkBr-3
# Description: as §1, §2, §3, §4
# Ewing's sarcoma (NCI) = tested on: Ewing's sarcoma (NCI)
# Description: as §1, §2, §3, §4
# Hep3B = tested on: Hep3B
# Description: as §1, §2, §3, §4
# ZR-75 = tested on: ZR-75
# Description: as §1, §2, §3, §4
# MCF-7 = tested on: MCF-7
# Description: as §1, §2, §3, §4
# Melanoma (Skmel 2) = tested on: Melanoma (Skmel 2)
# Description: as §1, §2, §3, §4
# [1] = tested on: SCC, Squamous cell carcinoma
# Description: as §1, §2, §3, §4
# Osteosarcoma (143b) = tested on: Osteosarcoma (143b)
# Description: as §1, §2, §3, §4
# MDA MB 468 = tested on: MDA MB 468
# Description: as §1, §2, §3, §4
# [2] = tested on: Keratinocytes (Heka, Hekn); details: SKIN: Keratinocytes (Heka, Hekn)
# Description: as §1, §2, §3, §4
# Melanocytes (Hema, LP) = details: SKIN: Melanocytes (Hema, LP)
# Description: as §1, §2, §3, §4
# Melanoma (Skmel 28) = tested on: Melanoma (Skmel 28)
# Description: as §1, §2, §3, §4
# [3] = tested on: Aortic smooth muscle (HASMC); details: Heart: Aortic smooth muscle (HASMC)
# Description: as §1, §2, §3, §4
# [4] = tested on: Mammary fiboblasts: 184A1 and 184B5; details: BREAST: Mammary fiboblasts 184A1 and 184B5
# Description: as §1, §2, §3, §4
# Fibroblasts (nFib) = details: SKIN: Fibroblasts (nFib)
# Description: as §1, §2, §3, §4
substance,measurement,setting,value
Coenzyme Q10 [CoQ10],"Indication of Early apoptosis (Bcl-2, annexin V, or caspase activation)",BT-20; BREAST: BT-20,Strong
same,Minimal CoQ10 Concentration required for induction of early apoptosis,BT-20; BT-20,100 µM
same,Treatment Time required for induction of early apoptosis,BT-20; BT-20,48 h
same,"Indication of Early apoptosis (Bcl-2, annexin V, or caspase activation)",PaCa2; PANCREAS: PaCa2,Very Strong
same,Minimal CoQ10 Concentration required for induction of early apoptosis,PaCa2; PaCa2,25 µM
same,Treatment Time required for induction of early apoptosis,PaCa2; PaCa2,24 h
same,Minimal CoQ10 Concentration required for induction of early apoptosis,HepG2; HepG2,50 µM
same,Treatment Time required for induction of early apoptosis,HepG2; HepG2,24 h
same,"Indication of Early apoptosis (Bcl-2, annexin V, or caspase activation)",HepG2; LIVER: HepG2,Very Strong
same,Minimal CoQ10 Concentration required for induction of early apoptosis,PC3; PC3,25 µM
same,Treatment Time required for induction of early apoptosis,PC3; PC3,24 h
same,"Indication of Early apoptosis (Bcl-2, annexin V, or caspase activation)",PC3; PROSTATE: PC3,Very Strong
same,"Indication of Early apoptosis (Bcl-2, annexin V, or caspase activation)",SkBr-3; BREAST: SkBr-3,Very Strong
same,Minimal CoQ10 Concentration required for induction of early apoptosis,SkBr-3; SkBr-3,50 µM
same,Treatment Time required for induction of early apoptosis,SkBr-3; SkBr-3,24 h
same,Minimal CoQ10 Concentration required for induction of early apoptosis,Ewing's sarcoma (NCI),5 µM
same,Treatment Time required for induction of early apoptosis,Ewing's sarcoma (NCI),1 h
same,Minimal CoQ10 Concentration required for induction of early apoptosis,Hep3B; Hep3B,50 µM
same,Treatment Time required for induction of early apoptosis,Hep3B; Hep3B,24 h
same,"Indication of Early apoptosis (Bcl-2, annexin V, or caspase activation)",Hep3B; LIVER: Hep3B,Very Strong
same,"Indication of Early apoptosis (Bcl-2, annexin V, or caspase activation)",ZR-75; BREAST: ZR-75,Slight
same,Minimal CoQ10 Concentration required for induction of early apoptosis,ZR-75; ZR-75,200 µM
same,Treatment Time required for induction of early apoptosis,ZR-75; ZR-75,72 h
same,"Indication of Early apoptosis (Bcl-2, annexin V, or caspase activation)",MCF-7; BREAST: MCF-7,Strong
same,Minimal CoQ10 Concentration required for induction of early apoptosis,MCF-7; MCF-7,50 µM
same,Treatment Time required for induction of early apoptosis,MCF-7; MCF-7,48 h
same,Minimal CoQ10 Concentration required for induction of early apoptosis,Melanoma (Skmel 2); Melanoma (Skmel 2),25 µM
same,Treatment Time required for induction of early apoptosis,Melanoma (Skmel 2); Melanoma (Skmel 2),24 h
same,"Indication of Early apoptosis (Bcl-2, annexin V, or caspase activation)",Melanoma (Skmel 2); SKIN: Melanoma (Skmel 2),Very Strong
same,Minimal CoQ10 Concentration required for induction of early apoptosis,[1]; SCC,25 µM
same,Treatment Time required for induction of early apoptosis,[1]; SCC,24 h
same,"Indication of Early apoptosis (Bcl-2, annexin V, or caspase activation)",[1]; SKIN: SCC,Very Strong
same,"Indication of Early apoptosis (Bcl-2, annexin V, or caspase activation)",Osteosarcoma (143b); BONE: Osteosarcoma (143b),Very Strong
same,Minimal CoQ10 Concentration required for induction of early apoptosis,Osteosarcoma (143b); Osteosarcoma (143b),50 µM
same,Treatment Time required for induction of early apoptosis,Osteosarcoma (143b); Osteosarcoma (143b),48 h
same,"Indication of Early apoptosis (Bcl-2, annexin V, or caspase activation)",MDA MB 468; BREAST: MDA MB 468,Strong
same,Minimal CoQ10 Concentration required for induction of early apoptosis,MDA MB 468; MDA MB 468,100 µM
same,Treatment Time required for induction of early apoptosis,MDA MB 468; MDA MB 468,48 h
same,"Indication of Early apoptosis (Bcl-2, annexin V, or caspase activation)",[2],None
same,"Indication of Early apoptosis (Bcl-2, annexin V, or caspase activation)","Melanocytes (Hema, LP)",None
same,Minimal CoQ10 Concentration required for induction of early apoptosis,Melanoma (Skmel 28); Melanoma (Skmel 28),20 µM
same,Treatment Time required for induction of early apoptosis,Melanoma (Skmel 28); Melanoma (Skmel 28),24 h
same,"Indication of Early apoptosis (Bcl-2, annexin V, or caspase activation)",Melanoma (Skmel 28); SKIN: Melanoma (Skmel 28),Strong
same,"Indication of Early apoptosis (Bcl-2, annexin V, or caspase activation)",[3],None
same,"Indication of Early apoptosis (Bcl-2, annexin V, or caspase activation)",[4],None
same,"Indication of Early apoptosis (Bcl-2, annexin V, or caspase activation)",Fibroblasts (nFib),None
